This assay concerns the target Growth hormone secretagogue receptor type 1 (Homo sapiens, UniProt Q92847). The experiment in a line: SUPPLEMENTARY: Agonist activity at GSHR by FLIPR assay. Same assay as CHEMBL941945. Type of assay: functional.
Chain of Growth hormone secretagogue receptor type 1 (Q92847 whole entry): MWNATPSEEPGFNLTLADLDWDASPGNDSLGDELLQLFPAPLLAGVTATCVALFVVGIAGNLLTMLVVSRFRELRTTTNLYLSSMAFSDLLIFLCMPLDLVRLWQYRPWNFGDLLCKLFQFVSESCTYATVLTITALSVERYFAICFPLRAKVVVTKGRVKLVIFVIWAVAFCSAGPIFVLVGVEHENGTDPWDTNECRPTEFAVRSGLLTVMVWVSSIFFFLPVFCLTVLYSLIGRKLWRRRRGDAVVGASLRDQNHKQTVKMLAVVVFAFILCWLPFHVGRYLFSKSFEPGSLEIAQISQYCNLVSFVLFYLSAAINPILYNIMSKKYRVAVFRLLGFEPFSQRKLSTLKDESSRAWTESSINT
`Cc1ccc(-c2ccc(S(=O)(=O)Nc3cc(N4C[C@@H](C)N[C@@H](C)C4)ccc3O)cc2)o1` showed a 50% effective concentration (EC50) of 5.01 nM. In the case of `C[C@@H]1CN(c2ccc(O)c(NS(=O)(=O)c3ccc(-c4ccco4)cc3)c2)C[C@H](C)N1` it was 15.8 nM; in that of `COc1ccc(N2CCN[C@@H](C)C2)cc1NS(=O)(=O)c1ccc(-c2cccs2)cc1`, 158 nM. Take `COc1ccc(N2CCN[C@H](C)C2)cc1NS(=O)(=O)c1ccc(-c2cccs2)cc1`: the response was half-maximal at 31.6 nM (EC50). With `Cc1ccc(-c2ccc(S(=O)(=O)Nc3cc(N4C[C@@H](C)N[C@@H](C)C4)ccc3O)cc2F)o1` the figure was 3.16 nM; with `C[C@@H]1CN(c2ccc(O)c(NS(=O)(=O)c3ccc(-c4ccccc4F)s3)c2)C[C@H](C)N1`, 6.31 nM.

For the origin of these results see ChEMBL document CHEMBL2364335, “Structure-activity relationship data for chemical series of achiral agonists of the ghrelin (growth hormone secretagogue) receptor (Supplementary Bioactivity Data for publication CHEMBL1140573)”.
